Test results: patent publication US10800741B2 (ANCUREALL PHARMACEUTICAL (SHANGHAI) CO., LTD., priority 2017, dated 2020)

How the values were obtained:
MOLM-13 (FLT3-ITD) = test: In vitro growth inhibition of MOLM-13 tumor cells (MTT/CCK8); type: cell-based, Human; settings: Homo sapiens, MOLM-13; in vitro growth inhibition (or induction of apoptosis), cells cultured 3 to 5 days, MTT (CCK8); read-out: IC50 MOLM-13 (FLT3-ITD)
Hep3B2 (FGFR3/4+++) = test: In vitro growth inhibition of Hep3B2 tumor cells (MTT/CCK8); type: cell-based, Human; settings: Homo sapiens, Hep3B; in vitro growth inhibition (or induction of apoptosis), cells cultured 3 to 5 days, MTT (CCK8); read-out: IC50 Hep3B2 (FGFR3/4+++)
H1703 (PDGFRa amp) = test: In vitro growth inhibition of H1703 tumor cells (MTT/CCK8); type: cell-based, Human; settings: Homo sapiens, NCI-H1703; in vitro growth inhibition (or induction of apoptosis), cells cultured 3 to 5 days, MTT (CCK8); read-out: IC50 H1703 (PDGFRa amp)
KATO III (FGFR2 amp) = test: In vitro growth inhibition of KATO III tumor cells (MTT/CCK8); type: cell-based, Human; settings: Homo sapiens, KATO III; in vitro growth inhibition (or induction of apoptosis), cells cultured 3 to 5 days, MTT (CCK8); read-out: IC50 KATO III (FGFR2 amp)
Kasumi-1 (KIT N822K) = test: In vitro growth inhibition of Kasumi-1 tumor cells (MTT/CCK8); type: cell-based, Human; settings: Homo sapiens, Kasumi 1; in vitro growth inhibition (or induction of apoptosis), cells cultured 3 to 5 days, MTT (CCK8); read-out: IC50 Kasumi-1 (KIT N822K)
H1581 (FGFR1 amp) = test: In vitro growth inhibition of H1581 tumor cells (MTT/CCK8); type: cell-based, Human; settings: Homo sapiens, NCI-H1581; in vitro growth inhibition (or induction of apoptosis), cells cultured 3 to 5 days, MTT (CCK8); read-out: IC50 H1581 (FGFR1 amp)
Karpas 299 (NPM-ALK) = test: In vitro growth inhibition of Karpas 299 tumor cells (MTT/CCK8); type: cell-based, Human; settings: Homo sapiens, KARPAS-299; in vitro growth inhibition (or induction of apoptosis), cells cultured 3 to 5 days, MTT (CCK8); read-out: IC50 Karpas 299 (NPM-ALK)
KCL-22 (BCR-ABL) = test: In vitro growth inhibition of KCL-22 tumor cells (MTT/CCK8); type: cell-based, Human; settings: Homo sapiens, KCL-22; in vitro growth inhibition (or induction of apoptosis), cells cultured 3 to 5 days, MTT (CCK8); read-out: IC50 KCL-22 (BCR-ABL)
RS4:11 = test: In vitro growth inhibition of FLT3 wild type overexpressing cells RS4:11; type: cell-based; settings: Homo sapiens, cells over expressing FLT3 wild-type
Description: (§1) Adherent cells were digested with 0.25% trypsin-EDTA (Gibco). Suspension culture cells were collected by centrifugation (1700 rpm, 3 minutes). The supernatant was discarded and the cells were counted. According to each cell growth cycle, different concentrations of cells were prepared (5˜10×10^4 cells per ml), and inoculated to 96-well plates (Corning), with 100 μl per well, and incubated overnight at 37° C., 5% CO2. The next day, the test compound was added to the cultured cells (2 wells in parallel). The final concentration of the solvent was less than 1/1,000. The cells were further cultured for 3 to 5 days and assayed by MTT.
(§2) The MTT test reagent was a Dojindo CCK8 kit and the Microplate Reader was a THERMO […] FC instrument.
(§3) The adherent cells were taken out from the cell culture medium, and immediately added to a freshly prepared complete medium containing 10% CCK8 (5% FBS), 100 ul per hole. The suspended cells were directly added to a CCK8 reagent until reaching a final concentration of 10% and cultured for 1 to 4 hours. When a dark yellow color could be observed in the solvent control wells, the absorbance value at OD450 nm was measured and the cell growth rate was calculated according to the following formula: Cell Growth Rate (%)=100×(T−T0)/(C−T0)
(§4) T=optical density of drug-treated cell wells−optical density of blank control wells; T0=optical density of cell wells before drug treatment−optical density of blank control wells; C=optical density of solvent control wells−optical density of blank control wells. […] The experiments were repeated 1 to 3 times and a statistical analysis of data was conducted.
(§5) The present compounds which has a high growth inhibition activity on tumor cells positive expressing FLT3-ITD were selected for the determination of IC50 concentration on FLT3 wild tyoverexpressing cells RS4:11 and FLT3 wild-type normal expressing cells Jurkat. The specific test method is the same as that of test example 1.

Jurkat = test: In vitro growth inhibition of FLT3 wild-type normal expressing cells Jurkat; type: cell-based; settings: Homo sapiens, cells normally expressing FLT3 wild-type
Description: as §1, §2, §3, §4, §5

Structure (SMILES)	IC50 (MOLM-13 (FLT3-ITD))	IC50 (Hep3B2 (FGFR3/4+++))	IC50 (H1703 (PDGFRa amp))	IC50 (KATO III (FGFR2 amp))	IC50 (Kasumi-1 (KIT N822K))	IC50 (H1581 (FGFR1 amp))	IC50 (Karpas 299 (NPM-ALK))	IC50 (KCL-22 (BCR-ABL))	IC50 (RS4:11)	IC50 (Jurkat)
CNC(=O)c1cc2c(Oc3ccc(NC(=O)Nc4cc(C(C)(C)C)n[nH]4)cc3Cl)ccnc2cc1OC [Compound 54, 4-{4-[3-(5-tert-butyl-2H-pyrazol-3-yl)-ureido]-2-chloro-phenoxy}-7-methoxyquinolin-6-carboxylic acid methylamide]	0.27 nM	153 nM	71.5 nM	5.5 nM	26.1 nM	53.4 nM	114 nM	23.9 nM	531 nM	–
COc1cc2nccc(Oc3ccc(NC(=O)Nc4cc(C(C)(C)C)on4)cc3Cl)c2cc1C(N)=O [Compound 8, 4-{4-[3-(5-tert-butyl-isoxazol-3-yl)-ureido]-2-chloro-phenoxy}-7-methoxyquinolin-6-carboxamide]	< 0.05 nM	45.6 nM	17.5 nM	2.93 nM	35.1 nM	19.5 nM	142 nM	18.7 nM	370 nM	288 nM
COc1cc2nccc(Oc3ccc(NC(=O)Nc4cc(C(C)(C)C)on4)cc3)c2cc1C(N)=O [Compound 1, 4-{4-[3-(5-tert-butyl-isoxazol-3-yl)-ureido]-phenoxy}-7-methoxyquinolin-6-carboxamide]	< 0.05 nM	282 nM	9.45 nM	1.28 nM	90.1 nM	16.1 nM	394 nM	64.7 nM	188 nM	521 nM
COc1cc2nccc(Oc3ccc(NC(=O)Nc4cc(C(C)(C)C)n[nH]4)c(Cl)c3Cl)c2cc1C(N)=O [Compound 37, 4-{4-[3-(5-tert-butyl-2H-pyrazol-3-yl)-ureido]-2,3-dichloro-phenoxy}-7-methoxyquinolin-6-carboxamide]	0.97 nM	9.6 nM	6.44 nM	0.19 nM	2.05 nM	4.73 nM	52.3 nM	0.498 nM	139 nM	408 nM
CNC(=O)c1cc2c(Oc3ccc(NC(=O)Nc4cc(C(C)(C)C)n[nH]4)cc3C)ccnc2cc1OC [Compound 52, 4-{4-[3-(5-tert-butyl-2H-pyrazol-3-yl)-ureido]-2-methyl-phenoxy}-7-methoxyquinolin-6-carboxylate acid methylamide]	0.06 nM	175 nM	62.4 nM	3.28 nM	3.83 nM	107 nM	203 nM	7.11 nM	> 1000 nM	> 1000 nM
COc1cc2nccc(Oc3ccc(NC(=O)Nc4cc(C(C)(C)C)n[nH]4)cc3F)c2cc1NC(C)=O [Compound 102, N-(4-{4-[3-(5-tert-butyl-2H-pyrazol-3-yl)-ureido]-2-fluoro-phenoxy}-7-methoxy-quinolin-6-yl)-acetamide]	< 0.05 nM	75.8 nM	71.2 nM	1.32 nM	97.5 nM	8.39 nM	> 1000 nM	10.2 nM	500 nM	–
COc1cc2nccc(Oc3ccc(NC(=O)Nc4cc(C(C)(C)C)on4)cc3Br)c2cc1C(N)=O [Compound 7, 4-{2-Bromo-4-[3-(5-tert-butyl-isoxazol-3-yl)-ureido]-phenoxy}-7-methoxyquinolin-6-carboxamide]	< 0.05 nM	83.9 nM	19.4 nM	6.33 nM	46 nM	55.4 nM	187 nM	19.8 nM	375 nM	302 nM
COc1cc2nccc(Oc3ccc(NC(=O)Nc4cc(C(C)(C)C)n[nH]4)cc3C)c2cc1C(N)=O [Compound 35, 4-{4-[3-(5-tert-butyl-2H-pyrazol-3-yl)-ureido]-2-methyl-phenoxy}-7-methoxyquinolin-6-carboxamide]	< 0.05 nM	166 nM	106 nM	4.45 nM	7.32 nM	105 nM	393 nM	16.8 nM	> 1000 nM	429 nM
COc1cc2nccc(Oc3ccc(NC(=O)Nc4cc(C(C)(C)C)n[nH]4)cc3Cl)c2cc1C(N)=O [Compound 36, 4-{4-[3-(5-tert-butyl-2H-pyrazol-3-yl)-ureido]-2-chloro-phenoxy}-7-methoxyquinolin-6-carboxamide]	< 0.05 nM	78.9 nM	227 nM	2.62 nM	70.8 nM	65.7 nM	179 nM	31.5 nM	750 nM	535 nM
COc1cc2nccc(Oc3ccc(NC(=O)Nc4cc(C(C)(C)C)on4)cc3F)c2cc1C(N)=O [Compound 9, 4-{4-[3-(5-tert-butyl-isoxazol-3-yl)-ureido]-2-fluoro-phenoxy}-7-methoxyquinolin-6-carboxamide]	< 0.05 nM	47.6 nM	18.5 nM	1.39 nM	144 nM	9.59 nM	352 nM	35.8 nM	750 nM	409 nM
COc1cc2nccc(Oc3ccc(NC(=O)Nc4cc(C(C)(C)C)on4)cn3)c2cc1C(N)=O [Compound 24, 4-{5-[3-(5-tert-butyl-isoxazol-3-yl)-ureido]-pyridin-2-yloxy}-7-methoxyquinolin-6-carboxamide]	0.99 nM	346 nM	83.5 nM	31 nM	> 1000 nM	493 nM	764 nM	> 1000 nM	> 1000 nM	572 nM
